These are literature values, as cited in patent US20080089936A1, “PROLONGED RELEASE FORMULATION OF ACTIVE PRINCIPLES HAVING A PH-DEPENDENT SOLUBILITY” (SANOFI-AVENTIS, priority 2005, published 2008).

For the data set the following is noted: hypnotic agent, oral.

With `Cc1ccc(-c2nc3ccc(C)cn3c2CC(=O)N(C)C)cc1` [zolpidem], the duration of action result is on record as “up to 6 hours”.
